Test results as given in PMC7238120, “Strong and Selective Inhibitory Effects of the Biflavonoid Selamariscina A against CYP2C8 and CYP2C9 Enzyme Activities in Human Liver Microsomes” (Pharmaceutics, 2020).

How the values were obtained:
CYP2C19 = molecular target: T1, CYP2C19 (Homo sapiens, UniProt P33261); assay: Inhibition of CYP2C19 (omeprazole) activity in pooled human liver microsomes; assay type: in vitro ADME; conditions: substrate omeprazole 20 µM; pooled HLMs; read-out: IC50, P450 2C19
T1 construct: incubation mixtures containing pooled human liver microsomes (HLMs, XTreme 200, XenoTech); tissue XenoTech XTreme 200; host or cells: pooled human liver microsomes
T1 sequence (P33261 whole entry): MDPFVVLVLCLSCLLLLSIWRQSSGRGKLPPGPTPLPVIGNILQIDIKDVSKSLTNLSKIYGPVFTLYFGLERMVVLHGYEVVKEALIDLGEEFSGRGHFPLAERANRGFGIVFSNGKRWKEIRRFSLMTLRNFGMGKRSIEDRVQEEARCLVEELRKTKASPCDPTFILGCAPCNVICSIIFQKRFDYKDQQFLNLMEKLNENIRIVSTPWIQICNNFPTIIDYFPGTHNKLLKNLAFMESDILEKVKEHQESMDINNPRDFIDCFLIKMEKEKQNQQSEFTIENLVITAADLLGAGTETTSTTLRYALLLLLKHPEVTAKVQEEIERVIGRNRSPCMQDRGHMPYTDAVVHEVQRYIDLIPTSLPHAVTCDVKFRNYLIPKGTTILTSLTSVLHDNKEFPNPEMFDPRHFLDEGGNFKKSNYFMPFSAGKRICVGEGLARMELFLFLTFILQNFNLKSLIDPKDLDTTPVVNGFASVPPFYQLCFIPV
Description: (§1) The inhibitory potential of the five biflavonoids on the metabolism of nine P450 probe substrates was evaluated using previously developed methods with minor modifications. Biflavonoids were dissolved in methanol. The final concentration of methanol in the incubation mixture was 1.0% (v/v). We used these P450 probe substrates: phenacetin for CYP1A2, coumarin for CYP2A6, bupropion for CYP2B6, amodiaquine for CYP2C8, diclofenac for CYP2C9, omeprazole for CYP2C19, dextromethorphan for CYP2D6, chlorzoxazone for CYP2E1 and midazolam for CYP3A (Table 1). The incubation mixtures containing pooled human liver microsomes (HLMs, XTreme 200, XenoTech), P450 probe substrates, and inhibitor (0~20 µM) were pre-incubated at 37 °C for 5 min. The concentration range of the inhibitor varied (0, 0.002, 0.005, 0.02, 0.05, and 0.2 µM for CYP2C8; 0, 0.02, 0.05, 0.2, 0.5, and 2 µM for CYP2C9; 0, 0.5, 2, 5, 10, and 20 µM for other P450 isoforms). After pre-incubation, a reduced nicotinamide adenine dinucleotide phosphate (NADPH) generation system containing 1 unit/ml G6PDH, 1.3 mM β- nicotinamide adenine dinucleotide phosphate (β- NADP^+), 3.3 mM MgCl2, and 3.3 mM G6P was added to initiate a reaction, and further incubated for 10 min at 37 °C. The reaction was stopped by adding 50 μL of ice-cold acetonitrile containing 7 nM trimipramine (internal standard, IS). After centrifugation at 18,000 g (5 min, 4 °C), aliquots of supernatants were analyzed by LC–MS/MS (Shimadzu LCMS 8060 system, Shimadzu, Kyoto, Japan). All microsomal incubations were conducted in triplicate.
(§2) All metabolites and the IS were separated on a Kinetex XB-C18 column (100 × 2.10 mm, 2.6 μm, 100 Å; Phenomenex, Torrance, CA, USA) and analyzed using a Shimadzu LCMS 8060 triple-quadrupole mass spectrometer coupled with a Nexera X2 ultra high-performance liquid chromatography system (Shimadzu, Kyoto, Japan) equipped with an electrospray ionization interface. The mobile phase consisted of 0.1% formic acid in water (A) and 0.1% formic acid in acetonitrile (B). The elution condition was set as 8% B (0–0.5 min), 8%→60% B (0.5–5 min), 60% B (5–6 min), 60%→8% B (6–6.1 min) and 8% B (6.1–9 min) for the analysis of metabolites of P450 probe substrates and set as 0%→40% B (0–1 min), 40%→50% B (1–5 min), 50%→0% B (5–5.1 min), and 0% B (5.1–8 min) for the analysis of metabolites of UGT probe substrates. The flow rate was 0.2 mL/min. Electrospray ionization was performed in positive-ion mode at 4000 V or in negative-ion mode at −3500 V. The optimum operating conditions were determined as follows: vaporizer temperature, 300 °C; capillary temperature, 350 °C; collision gas (argon) pressure, 1.5 mTorr. Quantitation was conducted in selected reaction monitoring (SRM) modes with the precursor-to-product ion transition for each metabolite (Table 1 and Table 2).
(§3) We analyzed the data with Shimadzu LabSolution LC–MS software. The IC50 values were calculated by WinNonlin software (Pharsight, Mountain View, CA, USA). The type of inhibition and the apparent kinetic parameters for inhibitory activity (Ki) were determined by following several criteria: visual inspection of Dixon plots, Lineweaver–Burk double reciprocal plots, and secondary plots of Lineweaver–Burk plots versus biflavonoid concentrations, the size of the sum of squares of the residuals, Akaike Information Criteria values, the S.E. and 95% confidence interval of the parameter estimates from the nonlinear regression analysis using the WinNonlin software. The models tested included competitive, competitive partial, noncompetitive, noncompetitive partial, uncompetitive, uncompetitive partial, and mixed-type inhibition.

CYP2A6 = molecular target: T2, CYP2A6 (Homo sapiens, UniProt P11509); assay: Inhibition of CYP2A6 (coumarin) activity in pooled human liver microsomes, cocktail incubation; assay type: in vitro ADME; conditions: substrate coumarin 5 µM; pooled HLMs; read-out: IC50, P450 2A6
T2 construct: incubation mixtures containing pooled human liver microsomes (HLMs, XTreme 200, XenoTech); tissue XenoTech XTreme 200; host or cells: pooled human liver microsomes
T2 sequence (P11509 1-494): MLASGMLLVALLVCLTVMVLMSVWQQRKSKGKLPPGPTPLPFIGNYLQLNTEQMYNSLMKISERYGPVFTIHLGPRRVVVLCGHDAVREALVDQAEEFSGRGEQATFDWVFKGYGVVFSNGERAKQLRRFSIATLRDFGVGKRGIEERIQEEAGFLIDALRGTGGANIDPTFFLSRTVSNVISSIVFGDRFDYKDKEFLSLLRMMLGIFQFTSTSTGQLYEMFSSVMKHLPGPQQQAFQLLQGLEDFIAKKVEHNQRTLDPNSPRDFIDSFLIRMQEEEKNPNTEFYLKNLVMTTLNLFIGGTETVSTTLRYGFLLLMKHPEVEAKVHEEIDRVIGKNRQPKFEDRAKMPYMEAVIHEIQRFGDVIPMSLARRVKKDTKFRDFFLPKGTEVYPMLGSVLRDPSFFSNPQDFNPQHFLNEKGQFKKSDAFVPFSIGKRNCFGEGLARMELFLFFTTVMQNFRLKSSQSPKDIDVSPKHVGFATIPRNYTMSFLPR
Description: as §1, §2, §3

IC50 (CYP2C19) | IC50 (CYP2A6) | Structure (SMILES)
3 µM | > 20 µM | O=c1cc(-c2ccc(O)cc2)oc2c(-c3c(O)cc(O)c4c(=O)cc(-c5ccc(O)cc5)oc34)c(O)cc(O)c12 [cupressuflavone]
6.4 µM | 11.8 µM | O=c1cc(-c2ccc(O)c(-c3c(O)cc4oc(-c5ccc(O)cc5)cc(=O)c4c3O)c2)oc2cc(O)cc(O)c12 [robustaflavone]
13.3 µM | 11.6 µM | O=C1CC(c2cc(-c3c(O)ccc4c(=O)cc(-c5ccc(O)cc5)oc34)c(O)cc2O)Oc2cc(O)cc(O)c21 (stereo not drawn) [selamariscina A]
5 µM | 10.6 µM | O=c1cc(-c2ccc(O)c(-c3c(-c4ccc(O)cc4)oc4cc(O)cc(O)c4c3=O)c2)oc2cc(O)cc(O)c12 [taiwaniaflavone]

The next lines start with the compound.

Structure (SMILES) | IC50 (CYP2C19) | IC50 (CYP2A6)
CC(C)(O)c1ccccc1CC[C@@H](SCC1(CC(=O)O)CC1)c1cccc(/C=C/c2ccc3ccc(Cl)cc3n2)c1 [montelukast, reference compound] | > 50 µM | > 50 µM
O=c1cc(-c2ccc(O)c(-c3c(O)cc(O)c4c(=O)cc(-c5ccc(O)cc5)oc34)c2)oc2cc(O)cc(O)c12 [amentoflavone] | 3.4 µM | 11.9 µM
